Key:
[1] = standard, in THF; cited from earlier work
HeLa cells [2] = assay: mitotic index (Feulgen method, Giemsa staining); type: cell-based, human; conditions: 100 µM
Method: As a result of applying the optimum concentration of the product(100 µM) on HeLa cells for 0-72 hours, the preparations prepared according to the experimental groups were primarily hydrolyzed with 1 N hydrochloric acid (HCl) at room temperature for 1 minute and then with 1 N HCl at 60°C for 10 minutes in order to determine the effects on the mitotic index values of the cells. After hydrolysis, the Feulgen method was applied to the preparations for 1 hour. Then, these preparations were washed 3 times for 2 minutes with a washing solution, which is specific to the Feulgen method, and air-dried. After the preparations were dried, they were prepared for counting by means of staining with Giemsa dye for 2 minutes. Late prophase, metaphase, anaphase, and telophase stages were counted in order to determine the mitosis index (MI) values of said preparations. The early prophase stage was evaluated together with this stage, as it was morphologically similar to the cells in the interphase group.
Three preparations were evaluated for each experimental group and mitosis index values were determined by means of counting 3000 cells on average from each preparation. The mitosis index values have been decreased from 6% to 3,7% at the 24th hour; from 6,68% to 2,21% at the 48th hour, and from 7,56% to 1,19% at the 72nd hour.

[3] = photodegradation quantum yield under irradiation; type: physicochemical
Method: DPBF with a concentration of […] was used in order to prevent chain reactions caused by the presence of singlet oxygen. Solutions of a sensitizer containing DPBF (absorbance at irradiation wavelength = 2.0) were prepared in a dark environment and irradiated in the Q band area by means of using the setup described above. This yield was found as 49%, according to Figure 7. The maximum absorbance of the Q band in the solutions of all complexes was set to 1.0 in the solvent used in order to determine the photodegradation quantum yield (Φd), and the decrease in the intensity of the Q band under irradiation with time is observed by means of using the following Equation-3: Φd = ((C0−Ct).V.NA)/(Iabs .S.t) [formula] wherein, • C0 (mol.dm^-3); concentration of Compound 2 before irradiation, • Ct (mol.dm^-3); concentration of Compound 2 […]; reaction volume (3.0 cm^3), • S; irradiated cell area, • t; irradiation time, • NA; Avogadro's number, • Iabs; the overlapping integration of the radiation source intensity. […] It has been observed that Compound 2 is active in destroying cancer cells, and as such may have a potential for the treatment of cancer with PDT when considering the PDT characteristic measurement results described above.

[4] = singlet oxygen quantum yield (DPBF quencher, ZnPc standard); type: physicochemical; conditions: irradiated in the Q band area, room conditions, Figure 7
Method: Singlet oxygen quantum yields of the inventive Compound 2 were calculated by means of Zinc (II) phthalocyanine (ZnPc) standard and 1,3-diphenylisobenzofuran (DPBF) singlet oxygen quencher at room conditions via using Equation-2 below: ΦΔ = ΦΔ^Std .(RDPBF .Iabs^Std)/(RDPBF^Std .Iabs) [formula] wherein, • Φ^StdΔ; the singlet oxygen yield (ZnPc ΦΔ = 0,53 in THF) • ΦΔ; for example, singlet oxygen yield, • RDPBF; the degradation rate of DPBF in the presence of the sample, • ROPBFstd; the degradation rate of DPBF in the presence of the standard, • Iabs; the light absorption rate of sample and standard, • IabStd; the light absorption rate of the standard.
DPBF with a concentration of […] was used in order to prevent chain reactions caused by the presence of singlet oxygen. Solutions of a sensitizer containing DPBF (absorbance at irradiation wavelength = 2.0) were prepared in a dark environment and irradiated in the Q band area by means of using the setup described above. This yield was found as 49%, according to Figure 7. […]

HeLa cells [5] = assay: cell index, real-time cell analysis system; type: cell-based, human; conditions: 72 hours
Method: In the present invention, the cell index parameter was evaluated by means of using a real-time cell analysis system in order to both support the results obtained and to determine the types of cell death, and an E-Plate with 16 wells was used in order to evaluate this parameter. Primarily, 100 µl of growth medium was added to each well of the E-Plate, and background measurements were taken in the cell analyzer device. Then, cultivation is performed in each well such that the 100 µl of growth medium has 6000 cells for HeLa cells. The E-Plates were incubated for 20 minutes in a sterile working cabinet at room temperature, and then placed in the cell analyzer device and incubation was continued at 37°C under ambient conditions of 5% carbon dioxide (CO2) after the cultivation process. The cell analyzer was issued a command to take the measurement every 15 minutes after the cell cultivation to the E-Plates was performed. After approximately 24 hours of cell cultivation, the growth medium in the E-Plates was changed with a growth medium containing different concentrations of In(III)Pc complex at the 1/3rd slice of the proliferation phase of the cells, and measurements were continued at 15-minute intervals for 72 hours. Subsequently, graphics of concentration and time-dependent cell index values were transferred to the computer screen. The antiproliferative effects of the In(III)Pc complex on HeLa cells are observed when the cell index values obtained from the real-time cell analysis system are examined.

HeLa cells [6] = assay: proliferation rate analysis (MTT, mitochondrial dehydrogenase enzyme activity); type: cell-based, human; conditions: for absorbance values / viability of cells: 24 hours; for absorbance values: MTT, 570 nm with reference to 690 nm, control group 590×10^-3; for viability of cells: control group considered 100%
Method: Different concentrations of In(III)Pc complex were applied to cultured human cervical cancer originated HeLa cells for 24 hours in order to determine the changes in mitochondrial dehydrogenase enzyme activity of cancer cells by means of the In(III)Pc complex obtained. For proliferation rate analysis, routinely cultured HeLa cells were cultivated in culture plates with 96 wells such that the growth medium is 3×10^4 cell/ml per well. In(III)Pc complex prepared at 50 µM, 100 µM, and 150 µM concentrations were applied to the cells after waiting for the cells to adhere and spread. The growth medium in the wells was withdrawn and 40 µl of 3-(4,5-dimethylthiazol-2-yl)-2,5-diphenyltetrazolium bromide (MTT) (5mg/ml) was added at the end of the experiment periods. 160 µl of dimethyl sulfoxide (DMSO) was added to the wells with MTT and incubated for 1 hour in a shaker incubator after waiting for approximately 4 hours. The absorbance values of the formed experimental groups were carried out by means of the spectrophotometer measurements at 570 nm with reference to the 690 nm wavelength after the formazan crystals formed are dissolved for the 1 hour incubation period. The absorbance values obtained as a result of this application were measured as 590×10^-3 for the control group; 460 ×10^-3 for 50 µM; 280 ×10^-3 for 100 µM, and 170 ×10^-3 for 150 µM.

[7] = solubility in common solvents; type: physicochemical; conditions: chloroform, acetone, THF, ethanol, methanol, DMF or DMSO
Method: The compound obtained by means of the aforementioned method is in the form of a dark green crystal, and the yield thereof is 82 mg (16,14%). The closed formula of Compound 2, which has a melting point >300°C is C89H99InN8O6, and its molecular weight is 1491,61 g/mol. It has been determined that C, 71.66; H, 6.69; […]; N, 7.51; O, 6.44 when the theoretical elemental analysis of the compound was performed. FTIR analysis was conducted in order to shed light upon the structure of said Compound 2 and it is illustrated in Figure 3. […] Table 1. The solubility data of the In(III) Pc compound.

Compound	singlet oxygen yield ΦΔ [1]	mitosis index values (HeLa cells [2]; 24th hour, decreased from 6%)	mitosis index values (HeLa cells [2]; 48th hour, decreased from 6,68%)	mitosis index values (HeLa cells [2]; 72nd hour, decreased from 7,56%)	photodegradation quantum yield (Φd) ([3]; Q band absorbance set to 1.0, irradiation with time)	stability under the light ([3]; from the photodegradation quantum yield)	singlet oxygen yield [4] [%]	effect on cell index values compared with standard curves (HeLa cells [5]; 50 µM)	effect on cell index values compared with standard curves (HeLa cells [5]; 100 µM (optimum concentration))	effect on cell index values compared with standard curves (HeLa cells [5]; 100 µM (optimum concentration), listed as In(III)Pc complex)	effect on cell index values compared with standard curves (HeLa cells [5]; 150 µM)	absorbance values (HeLa cells [6]; 50 µM)	viability of cells (HeLa cells [6]; 50 µM) [%]	death of the cells (HeLa cells [6]; 100 µM) [%]	absorbance values (HeLa cells [6]; 100 µM)	viability of cells (HeLa cells [6]; 100 µM) [%]	absorbance values (HeLa cells [6]; 150 µM)	viability of cells (HeLa cells [6]; 150 µM) [%]	IC50 (HeLa cells [6]; HeLa cells, read-out: IC50 concentration) [µM]	solubility [7]
[Zn+2].c1ccc2c(c1)-c1nc-2nc2[n-]c(nc3nc([n-]c4nc(n1)-c1ccccc1-4)-c1ccccc1-3)c1ccccc21 [ZnPc, Zinc (II) phthalocyanine]	0,53	–	–	–	–	–	–	–	–	–	–	–	–	–	–	–	–	–	–	–
1,8(11), 15(18),22(25)-tetra-(3,5-di-tert-butylphenoxy) indium (III) phthalocyanine [Compound 2]	–	3,7%	2,21%	1,19%	2,0017×10^-05	stable under the light	49	does not show a significant effect	DNA damaging effect	DNA damage	cytoskeletal effect	460 ×10^-3	78	52.55	280 ×10^-3	47.45	170 ×10^-3	28.81	100	capable of getting dissolved in common solvents

From EP4048709B1, “A DRUG FOR THE TREATMENT OF CERVICAL CANCER” (Yildiz Teknik Universitesi, priority 2020, dated 2022)
